Key:
[1] = cited from earlier work
[2] = test system: fecal matter from naïve mice; assay: In vitro anaerobic culturing of fecal matter with saccharin; type: cell-based; settings: anaerobic culture with saccharin 5 mgml^−1, day 9
Experimental: (§1) pooled fecal matter from naïve adult WT C57Bl/6 male mice was resuspended in 5 ml PBS in an anaerobic chamber (Coy Laboratory Products, 75% N2, 20% CO2, 5% H2), vortexed for 3 minutes and allowed to settle by gravity for 2 minutes. […] were added to a tube containing Chopped Meat Carbohydrate Broth, PR II (BD) and […] of a 5 mgml-1 saccharin solution or an equal volume of PBS. Every 3 days, 500 ml of culture were diluted to fresh medium containing saccharin or PBS. After 9 days, cultures were used for inoculation of germ-free mice.
Frozen fecal samples were processed for DNA isolation using the MoBio PowerSoil kit according to the manufacturer's instructions. […] the variable region 2 (V2) of the 16S rRNA gene were generated by using the following barcoded primers: Fwd 5′-[…]-3′ (SEQ ID NO: 3), Rev 5′-[…]-3′ (SEQ ID NO: 4). […] Reads were then processed using the QIIME (Quantitative Insights Into Microbial Ecology) analysis pipeline as described, version 1.8. Paired-end joined sequences were grouped into operational taxonomic units (OTUs) using the UCLUST algorithm and the greengenes database. Sequences with distance-based similarity of 97% or greater over median sequence length of 353 bp were assigned to the same OTU. Samples were grouped according to the treatment. […] P-values were FDR corrected for multiple hypothesis testing.

[3] = test system: mice; assay: Oral glucose tolerance test in mice drinking non-caloric artificial sweeteners (NAS); type: in vivo
Excerpt: (§2) C57Bl/6 WT adult male mice were randomly assigned (without blinding) to treatment groups and were given commercial artificial sweeteners (saccharin-, sucralose- or aspartame-based) or pure saccharin (Sigma Aldrich) in drinking water and fed a high-fat (HFD D12492, 60% Kcal from fat, Research Diets) or standard polysaccharide normal chow (NC) diet (Harlan-Teklad). Compared groups were always fed from the same batch of diet. For antibiotic treatment, mice were given a combination of ciprofloxacin (0.2 gl^−1) and metronidazole ([…]) or vancomycin (0.5 gl^−1) in their drinking water. All antibiotics were obtained from Sigma Aldrich. Adult male outbred Swiss-Webster mice (a widely used mouse strain in germ-free experiments) served as recipients for fecal transplants and were housed in sterile isolators (Park Biosciences). For fecal transplantation experiments, 200 mg of stool (from mouse pellets or human swabs) was resuspended in 5 ml of PBS under anaerobic conditions, vortexed for 3 minutes and allowed to settle by gravity for 2 minutes. Recipient mice were gavaged with 200 μl of the supernatant and maintained on standard NC diet and water throughout the experiment.
The following commercially available NAS were dissolved in mice drinking water to obtain a 10% solution: Sucrazit (5% saccharin, 95% glucose), Sucralite (5% Sucralose), Sweet'n Low Gold (4% Aspartame). 10% glucose (J.T. Baker) and 10% sucrose (Sigma Aldrich) solutions were used for controls. […] For experiments conducted with pure saccharin (Sigma Aldrich) a 0.1 mgml^−1 solution was used in order to meet with FDA defined ADI for saccharin in humans (5 mgkg^−1), according to the following calculation:
(§3) Mice were fasted for 6 hours during the light phase, with free access to water. In all groups of mice where the drinking regime was other than water, it was substituted for water for the period of the fasting and glucose or insulin tolerance test. Blood from the tail vein was used to measure glucose levels using a glucometer (Bayer) immediately before and 15, 30, 60, 90 and 120 minutes after oral feeding with 40 mg glucose (J.T. Baker) or intra-peritoneal injection with 0.1 Ukg^−1 Insulin (Biological Industries). Plasma fasting insulin levels were measured in sera collected immediately before the start of GTT using ELISA (Ultra Sensitive Mouse Insulin ELISA Kit, Crystal Chem).

[4] = test system: germ-free Swiss-Webster mice; assay: Fecal or culture transplantation into germ-free mice followed by OGTT; type: in vivo
Excerpt: as §2, §3, §1

## O=C1NS(=O)(=O)c2ccccc21 [saccharin]
[1]; humans
  FDA defined ADI (acceptable daily intake) in humans: 5 mgkg^−1
[1]; literature values
  reported toxic dose: 6.3 gkg^−1
[2]; control 22%
  Firmicutes relative abundance in stool culture: 6%
[2]; control 70%
  Bacteroidetes phyla relative abundance in stool culture: 89%
[3]; C57Bl/6 mice on HFD, 0.1 mgml^−1 pure saccharin in drinking water vs water, from 5 weeks, p<0.0002
  glucose tolerance (OGTT): impaired glucose tolerance
[3]; HFD-fed outbred Swiss Webster mice, 0.1 mgml^−1 pure saccharin, 5 weeks, p<0.03
  glucose tolerance (OGTT): significant glucose intolerance
[4]; D7 (post exposure) vs D1 stool from human NAS responders after 7 days commercial saccharin, P<0.004, P<0.02
  glucose tolerance of germ-free recipients: significant glucose intolerance
[4]; D7 vs D1 stool from two human NAS non-responders
  glucose tolerance of germ-free recipients: normal glucose tolerance
[4]; donors HFD-consuming mice drinking pure saccharin vs water, p<0.004
  glucose tolerance of germ-free recipients: replicated the glucose intolerance phenotype
[4]; recipients of in vitro saccharin-treated (5 mgml^−1) fecal culture vs control culture, 6 days, p<0.002
  glucose tolerance of germ-free recipients: significantly higher glucose intolerance

— patent US20190022152A1, “MICROBIOME RESPONSE TO AGENTS” (Yeda Research and Development Co., Ltd., priority 2014, published 2019)
